# From patent US10934263B2, “Charged ion channel blockers and methods for use” (Nocion Therapeutics, Inc., priority 2019, dated 2021)
# Biological target: T1, NaV1.7 (Homo sapiens, UniProt Q15858)
# T1 construct: expressed in transfected cells; tetracycline-inducible, kept under hygromycin and blasticidin
# Test: Automated patch clamp (Qube 384), internal block of NaV1.7 in HEK293 cells
# Format: cell-based
# Conditions: compound in internal solution, read-out: Nav1.7 Intracellular Inhibition (IC50)
# Method: NaV1.7 was expressed in HEK293 cells upon induction with tetracycline. Cells were cultured in DMEM containing 10% dialyzed Fetal Bovine Serum (VWR, Radnor, Pa.), 1% Glutamax (VWR, Radnor, Pa.), 1% Penicillin-Streptomycin (VWR, Radnor, Pa.), 100 mg/L Hygromycin (Thermo Fisher Scientific, Waltham, Mass. and 5 mg/L Blasticidin (Alfa Aesar, Haverhill, Mass.). Cells were grown and maintained at 37° C. in a humidified environment containing 10% CO2 in air. Cells were detached from the culture flask for passage and harvested using 0.05% Trypsin-EDTA (Thermo Fisher Scientific, Waltham, Mass.). To induce NaV1.7, cells were induced with tetracycline (0.1-1 μg/mL, IBI Scientific, Peosta, Iowa) the day before recording.
# Before experiments, cells were washed with DPBS (VWR, Radnor, Pa.), digested with Detachin (VWR Radnor, Pa.) and then triturated 10 times in CHO Serum-Free Media (VWR Radnor, Pa.) to resuspend the cells and to break apart cell aggregates. Cells were counted and the final concentration was set at 2-5 million cells per mL.
# The intracellular solution contained the following: 140 mM CsF, 1 mM/5 mM EGTA/CsOH, 10 mM HEPES, 10 mM NaCl, adjusted to pH 7.3 with CsOH, and osmolality to 320 with sucrose. The external solution contained the following: 145 mM NaCl, 4 mM KCl, 1 mM MgCl2, 2 mM CaCl2, 10 mM HEPES, 10 mM Glucose, adjusted to pH 7.4 with CsOH and osmolality to 305 with sucrose. All chemicals are from Sigma-Aldrich, St. Louis, Mo. In order to test the degree of internal block by test compounds, the compounds were dissolved in internal solution at the indicated test concentration. […] In order to test the degree of external block by test compounds the compounds were dissolved in external solution at the indicated test concentration.
# Automated Patch Clamps were performed on Qube 384 (Sophion Bioscience, Woburn Mass.) with multihole Qchips at a temperature setting of 22 degrees. The whole cells configuration was formed with default Qube seal and break-in parameter. The membrane potential was held at −100 mV before the voltage protocol began. Two voltage protocols were followed.
# Step 1: Cells were held at −100 mV with a depolarized pulse to −20 mV for 10 ms, the interval was set at 5 s. Currents were corrected by default leak subtraction from every pulse. The duration was set at 5 mins.
# Step 2: Cells were held at −100 mV with a depolarized pulse to −20 mV for 10 ms. The frequency was 5 Hz. Currents were corrected by leak subtraction calculated before step 2. The duration was set at 4 mins.
# After Step 2, the Qchip was removed from the recording chamber. The internal solution was changed with solutions containing test compounds. Qchips were held at −100 mV without pulsing after being replaced in the recording chamber. The total solution switching time was 8 minutes. After the internal solution exchange, Cells were recorded and step 2 for repeated for 10 minutes.
# Data analysis was performed by Sophion Analyzer. Cells were filtered with minimum 50 MOhm seal resistance and minimum 5 nA starting current. The rundown of the currents was corrected with control cells (Non-Drug). The remaining was calculated by averaging last 3 points in the end of experiments. The base line was calculated as the average of last 3 points of Step 2. IC50 curves were plotted with DR-plots/Hill function (a dose-response plot with a Hill fit). Data analysis was performed by Sophion Analyzer.
# T1 sequence (Q15858 whole entry): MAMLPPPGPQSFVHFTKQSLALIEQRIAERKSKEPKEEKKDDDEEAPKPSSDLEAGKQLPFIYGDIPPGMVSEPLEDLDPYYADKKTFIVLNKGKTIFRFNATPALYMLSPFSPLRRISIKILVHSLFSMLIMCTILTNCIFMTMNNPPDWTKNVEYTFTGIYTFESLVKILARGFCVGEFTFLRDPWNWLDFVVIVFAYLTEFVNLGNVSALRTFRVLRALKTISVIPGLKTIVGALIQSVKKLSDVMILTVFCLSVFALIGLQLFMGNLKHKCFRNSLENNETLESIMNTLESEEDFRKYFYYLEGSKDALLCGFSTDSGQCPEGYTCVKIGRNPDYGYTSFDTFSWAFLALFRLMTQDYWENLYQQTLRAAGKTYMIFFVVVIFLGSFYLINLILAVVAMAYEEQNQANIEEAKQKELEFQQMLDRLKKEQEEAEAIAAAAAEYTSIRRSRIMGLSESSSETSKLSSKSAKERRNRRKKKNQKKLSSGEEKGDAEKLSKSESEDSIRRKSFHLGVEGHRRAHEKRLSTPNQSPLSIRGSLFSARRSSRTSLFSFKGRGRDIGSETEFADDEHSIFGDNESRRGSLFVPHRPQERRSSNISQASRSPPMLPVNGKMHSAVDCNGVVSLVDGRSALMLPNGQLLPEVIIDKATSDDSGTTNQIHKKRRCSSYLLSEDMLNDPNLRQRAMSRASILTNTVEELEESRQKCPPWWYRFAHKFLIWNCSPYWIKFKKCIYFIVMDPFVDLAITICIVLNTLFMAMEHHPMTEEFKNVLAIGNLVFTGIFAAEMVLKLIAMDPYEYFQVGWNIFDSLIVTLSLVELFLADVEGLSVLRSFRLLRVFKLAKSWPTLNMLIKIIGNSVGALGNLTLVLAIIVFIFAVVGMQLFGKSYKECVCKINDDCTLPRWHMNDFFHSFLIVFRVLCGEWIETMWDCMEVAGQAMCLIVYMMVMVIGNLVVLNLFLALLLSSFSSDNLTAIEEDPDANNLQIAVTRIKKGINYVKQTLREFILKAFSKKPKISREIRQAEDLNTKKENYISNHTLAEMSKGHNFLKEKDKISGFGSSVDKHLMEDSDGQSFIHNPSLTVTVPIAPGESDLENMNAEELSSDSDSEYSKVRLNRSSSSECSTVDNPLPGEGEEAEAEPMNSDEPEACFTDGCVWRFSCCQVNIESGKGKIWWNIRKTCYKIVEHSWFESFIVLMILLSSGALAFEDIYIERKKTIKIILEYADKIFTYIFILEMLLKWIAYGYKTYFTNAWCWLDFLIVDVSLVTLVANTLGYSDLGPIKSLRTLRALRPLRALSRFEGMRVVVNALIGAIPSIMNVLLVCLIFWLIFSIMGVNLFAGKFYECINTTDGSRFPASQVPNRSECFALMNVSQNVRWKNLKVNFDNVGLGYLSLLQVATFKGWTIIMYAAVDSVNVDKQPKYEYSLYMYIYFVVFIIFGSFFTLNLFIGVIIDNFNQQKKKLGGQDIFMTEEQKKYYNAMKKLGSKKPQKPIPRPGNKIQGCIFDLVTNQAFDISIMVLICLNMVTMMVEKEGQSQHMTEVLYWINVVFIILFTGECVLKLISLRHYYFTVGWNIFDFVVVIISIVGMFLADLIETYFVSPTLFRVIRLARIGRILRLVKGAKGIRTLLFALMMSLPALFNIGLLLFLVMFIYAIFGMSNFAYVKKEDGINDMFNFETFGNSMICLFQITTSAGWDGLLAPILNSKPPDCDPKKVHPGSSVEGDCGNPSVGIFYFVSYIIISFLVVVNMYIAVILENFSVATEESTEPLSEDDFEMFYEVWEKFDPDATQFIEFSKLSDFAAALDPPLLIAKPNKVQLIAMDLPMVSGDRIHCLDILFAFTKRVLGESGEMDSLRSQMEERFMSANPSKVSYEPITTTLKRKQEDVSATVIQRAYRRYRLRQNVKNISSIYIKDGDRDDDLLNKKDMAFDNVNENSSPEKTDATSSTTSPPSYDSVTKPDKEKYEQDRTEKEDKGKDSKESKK
row,SMILES,IC50
1,CCOC(=O)Cn1cc(C)c[n+]1CC(=O)Nc1c(C)cccc1C [Compound 76],3 to 10 µM
2,Cc1cccc(C)c1NC(=O)C[n+]1cccc(Cc2ccccc2)c1 [Compound 34],< 1 µM
3,Cc1cccc(C)c1NC(=O)C[n+]1cccc(S(C)(=O)=O)c1 [Compound 46],3 to 10 µM
4,CCn1c(C)cc[n+]1CC(=O)Nc1c(C)cccc1C [Compound 104],1 to 3 µM
5,Cc1cccc(C)c1NC(=O)C[n+]1cccn1C1CCCC1 [Compound 71],< 1 µM
6,Cc1cccc(C)c1NC(=O)C[n+]1cc2ccccc2n1C [Compound 54],3 to 10 µM
7,COc1cc(OC)c[n+](CC(=O)Nc2c(C)cccc2C)c1 [Compound 98],1 to 3 µM
8,CCOC(=O)CCCn1ccc[n+]1CC(=O)Nc1c(C)cccc1C [Compound 75],< 1 µM
9,Cc1cccc(C)c1NC(=O)C[n+]1c(C)cc(C)n1C [Compound 94],< 1 µM
10,Cc1cccc(C)c1NC(=O)C[n+]1cccn1CC#N [Compound 69],10 to 30 µM
11,Cc1cccc(C)c1NC(=O)C[n+]1cccc(C(F)(F)F)c1 [Compound 66],1 to 3 µM
12,CCNc1ccc[n+](CC(=O)Nc2c(C)cccc2C)c1 [Compound 50],1 to 3 µM
13,Cc1cccc(C)c1NC(=O)C[n+]1cccc(N2CCCC2)c1 [Compound 51],< 1 µM
14,CCCn1ccc(C)[n+]1CC(=O)Nc1c(C)cccc1C [Compound 101],3 to 10 µM
15,Cc1cccc(C)c1NC(=O)C[n+]1cc(OCc2ccccc2)ccc1Cl [Compound 103],3 to 10 µM
16,Cc1cccc(C)c1NC(=O)C(Cc1ccccc1)[n+]1ccccc1 (stereo not drawn) [Compound 106],1 to 3 µM
17,Cc1cccc(C)c1NC(=O)C[n+]1cccc(S(=O)(=O)N(C)C)c1 [Compound 47],1 to 3 µM
18,Cc1cccc(C)c1NC(=O)C[n+]1cc(F)cc(-c2ccccc2)c1 [Compound 77],< 1 µM
19,Cc1cccc(C)c1NC(=O)C(CC(C)C)[n+]1ccccc1 (stereo not drawn) [Compound 108],1 to 3 µM
20,CCn1ccc(C)[n+]1CC(=O)Nc1c(C)cccc1C [Compound 95],1 to 3 µM
21,Cc1cccc(C)c1NC(=O)C[n+]1cccn1CC1CC1 [Compound 73],1 to 3 µM
22,COC(=O)c1c(F)c[n+](CC(=O)Nc2c(C)cccc2C)cc1F [Compound 89],3 to 10 µM
23,CCOC(=O)c1cc(C)[n+](CC(=O)Nc2c(C)cccc2C)n1C [Compound 84],3 to 10 µM
24,Cc1cccc(C)c1NC(=O)Cn1ccc[n+]1CC(=O)Nc1c(C)cccc1C [Compound 109],< 1 µM
25,CCCCn1ccc[n+]1CC(=O)Nc1c(C)cccc1C [Compound 83],1 to 3 µM
26,CNC(=O)Cc1ccc[n+](CC(=O)Nc2c(C)cccc2C)c1 [Compound 33],1 to 3 µM
27,CCCn1c(C)cc[n+]1CC(=O)Nc1c(C)cccc1C [Compound 81],1 to 3 µM
